According to patent US6632824B2, “Aryl-8-azabicyclo[3.2.1]octanes for the treatment of depression” (Wyeth, priority 2001, dated 2003):
Structures can show the parent of a compound that is named as a salt.

What was measured:
[1] = target: T1, 5-HT transporter (Rattus norvegicus, UniProt P31652); assay: Rat Brain 3H-Paroxetine Binding Assay (RB 5HT Transporter)
T1 construct: frontal cortical membranes prepared from male S.D. rats; from tissue; host or cells: rat frontal cortex membranes (male Sprague-Dawley)
Method: Rat Brain ^3H-Paroxetine Binding Assay (RB 5HT Transporter):
This assay is used to determine a compound's affinity of the 5-HT transporter.
(§1) Briefly, frontal cortical membranes prepared from male S.D. rats are incubated with ^3H-parxetine (0.1 nM) for 60 min. at 25° C. All tubes contain either vehicle, test compound (one to eight concentrations), or a saturating concentration of fluoxetine (10 μM) to define […]. All reactions are terminated by the addition of ice cold Tris buffer followed by rapid filtration using a Tom Tech filtration device to separate bound from free ^3H-paroxetine.

[2] = target: T2, Human 5-HT Transporter (Homo sapiens, UniProt P31645); assay: Inhibition of 3H-5-HT Uptake by Cells Possessing the Human 5-HT Transporter (HC 5HT Transporter); type: cell-based
T2 construct: endogenous in cells; host or cells: JAR human carcinoma cells, treated with staurosporine
Method: On the day of assay, vehicle, excess of fluoxetine, or test compound is added to various wells on the plate. All wells then receive ^3H-5-HT and are incubated at 37° C. for 5 min. The wells are then washed with ice cold 50 mM Tris HCl (pH 7.4) buffer and aspirated to remove free ^3H-5-HT. 25 μl of 0.25 M NaOH is then added to each well to lyse the cells and 75 μl scintillation cocktail (Microscint™ 20) added prior to quantitation on a Packard TopCount machine. Tubes with vehicle represent total possible uptake; radioactivity counted in tubes with fluoxetine represent nonspecific binding/uptake and is subtracted from the total possible uptake to give total possible specific uptake. […] Specific uptake is then expressed as a % of control values and is analyzed using nonlinear regression analysis (Prizm) to determine IC50 values.

[3] = target: T3, human 5-HT1A receptor (Homo sapiens, UniProt P08908); assay: HC 5-HT1A binding assay ([3H]8-OH-DPAT radioligand binding, h5-HT1A.CHO cell membranes)
T3 construct: expressed in transfected cells
T3 sequence (P08908 1-422): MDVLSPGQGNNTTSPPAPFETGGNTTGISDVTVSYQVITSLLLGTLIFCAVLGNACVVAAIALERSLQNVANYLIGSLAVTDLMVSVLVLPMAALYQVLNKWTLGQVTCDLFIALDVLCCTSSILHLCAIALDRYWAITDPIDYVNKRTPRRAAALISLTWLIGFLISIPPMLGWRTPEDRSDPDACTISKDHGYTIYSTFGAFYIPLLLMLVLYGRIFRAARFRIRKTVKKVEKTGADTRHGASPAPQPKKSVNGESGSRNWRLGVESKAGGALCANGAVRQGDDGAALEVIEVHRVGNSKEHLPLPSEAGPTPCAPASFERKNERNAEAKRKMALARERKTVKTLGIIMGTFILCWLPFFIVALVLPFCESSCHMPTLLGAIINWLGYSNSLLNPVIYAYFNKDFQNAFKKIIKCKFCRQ
Method: Cloning of Human 5-HT1A Receptor:
A stable Chinese hamster ovary cell line expressing the human 5-HT1A receptor subtype (h5-HT1A.CHO cells) is employed throughout this study. Cells are maintained in DMEM supplemented with 10% fetal calf serum, non-essential amino acids and penicillin/streptomycin.
Cells are grown to 95-100% confluency as a monolayer before membranes are harvested for binding studies. Cells are gently scraped from the culture plates, transferred to centrifuge tubes, and washed twice by centrifugation (2000 rpm for 10 min., 4° C.) in buffer (50 mM Tris; pH 7.5). The resulting pellets are aliquoted and placed at −80 C. On the day of assay, the cells are thawed on ice, and resuspended in buffer. Studies are conducted using [^3H]8-OH-DPAT as the radioligand. The binding assay is performed in 96-well microtiter plates in a final total volume of […] of buffer. […] Non-specific binding is determined in the presence of 10 μM 5HT. Saturation analysis is conducted by using [^3H]8-OH-DPAT at concentrations ranging from 0.3-30 nM. Following a 30 minute incubation at room temperature, the reaction is terminated by the addition of ice cold buffer and rapid filtration using a M-96 Brandel Cell Harvester (Gaithersburg, Md.) through a GF/B filter presoaked for 30 minutes in 0.5% polyethyleneimine.
^3H-Paroxetine Binding to Assess Affinity of Drugs for the Serotonin Transporter ([…]):
as §1, with “^3H-paroxetine” for “^3H-parxetine”, “min” for “min.”

[4] = target: T4, cloned human 5-HT1A receptors (Homo sapiens, UniProt P08908); assay: Assessment of agonism/antagonism at the 5-HT1A receptor using [35S]-GTPγS binding; type: biochemical
T4 construct: expressed in transfected cells
T4 sequence (P08908 1-422): T3 sequence (P08908 1-422)
Method: Assessment of Agonism/Antagonism at the 5-HT1A Receptor using [^35S]-GTPγS Binding to Cloned Human 5-HT1A Receptors:
Briefly, 5-HT1A cloned receptor membrane fragments (as used for 5-HT1A receptor binding assays) are stored at −70° C. until needed. When needed, membranes are rapidly thawed, centrifuged at 40,000× g for 10 minutes and resuspended at 4° C. for 10 minutes in assay buffer (25 mM HEPES, 3 mM MgCl2, 100 mM NaCl, 1 mM EDTA, 10 uM GDP, […], pH 8.0). These membranes are then incubated for 30 min at 30° C. with [^35S]GTPgS (1 nM) in the presence of vehicle, test compound (one to eight concentrations), or excess 8-OH-DPAT to define maximum agonist response. All reactions are terminated by the addition of ice cold Tris buffer followed by rapid filtration using a Tom Tech® filtration device to separate bound from free [^35S]GTPgS. Agonists produce an increase in the amount of [^35S]GTPgS bound whereas antagonists produce no increase in binding. Bound radioactivity is counted and analyzed as above.

T1 sequence (P31652 whole entry): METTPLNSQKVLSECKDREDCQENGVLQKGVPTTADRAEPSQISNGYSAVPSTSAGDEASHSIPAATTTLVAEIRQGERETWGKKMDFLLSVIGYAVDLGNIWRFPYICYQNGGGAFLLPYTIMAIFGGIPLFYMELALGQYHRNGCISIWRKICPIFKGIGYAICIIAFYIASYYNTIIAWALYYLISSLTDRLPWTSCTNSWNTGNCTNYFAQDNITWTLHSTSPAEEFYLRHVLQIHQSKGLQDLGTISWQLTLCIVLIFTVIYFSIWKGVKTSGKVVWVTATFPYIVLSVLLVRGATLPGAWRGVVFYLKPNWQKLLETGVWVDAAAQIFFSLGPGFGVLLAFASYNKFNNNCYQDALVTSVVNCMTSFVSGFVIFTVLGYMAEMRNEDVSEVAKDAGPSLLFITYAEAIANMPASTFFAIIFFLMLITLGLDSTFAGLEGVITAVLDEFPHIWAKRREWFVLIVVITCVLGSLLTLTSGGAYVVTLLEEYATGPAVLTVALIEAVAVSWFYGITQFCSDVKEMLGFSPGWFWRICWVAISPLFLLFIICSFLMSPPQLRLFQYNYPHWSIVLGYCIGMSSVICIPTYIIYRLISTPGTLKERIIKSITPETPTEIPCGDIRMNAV
T2 sequence (P31645 whole entry): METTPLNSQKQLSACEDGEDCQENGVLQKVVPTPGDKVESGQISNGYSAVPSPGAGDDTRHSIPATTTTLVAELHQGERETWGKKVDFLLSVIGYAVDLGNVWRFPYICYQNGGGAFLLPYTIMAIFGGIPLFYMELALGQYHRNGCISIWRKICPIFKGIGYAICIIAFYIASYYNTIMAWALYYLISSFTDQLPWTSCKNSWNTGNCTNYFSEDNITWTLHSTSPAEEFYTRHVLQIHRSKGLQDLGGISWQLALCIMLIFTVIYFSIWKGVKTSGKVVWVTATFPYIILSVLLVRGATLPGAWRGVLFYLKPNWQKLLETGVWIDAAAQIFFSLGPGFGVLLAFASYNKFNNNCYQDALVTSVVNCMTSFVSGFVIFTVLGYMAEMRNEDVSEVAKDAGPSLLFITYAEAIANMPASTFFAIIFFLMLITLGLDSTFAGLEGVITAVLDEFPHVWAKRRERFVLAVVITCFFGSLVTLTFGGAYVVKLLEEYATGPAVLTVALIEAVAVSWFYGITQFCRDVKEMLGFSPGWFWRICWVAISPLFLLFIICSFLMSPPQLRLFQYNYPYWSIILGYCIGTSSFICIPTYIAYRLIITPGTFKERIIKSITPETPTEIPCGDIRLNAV

With `COc1cc(OCCN2C3C=C(c4ccc5ccccc5c4)CC2CC3)c2ncccc2c1` (stereo not drawn) (as salt: oxalate) the melting point was 100 to 103 °C.
For `C1=C(c2c[nH]c3ccccc23)CC2CCC1N2CCOc1cccc2ncccc12` (stereo not drawn) (as salt: oxalate) [Example 3, 2-[3-(1H-Indol-3-yl)-8-azabicyclo[3.2.1]oct-2-en-8-yl]ethyl 5-quinolinyl Ether], the melting point was 91 to 93 °C (dec.).
With `C1=C(c2ccc3ccccc3c2)CC2CCC1N2CCOc1cccc2c1OCCO2` (stereo not drawn) (as salt: oxalate) [Example 4, 8-[2-(2,3-Dihydro-benzo[1,4]dioxin-5-yloxy)-ethyl]-3-naphthalen-2-yl-8-aza-bicyclo[3.2.1]oct-2-ene] the melting point was 151 to 153 °C (dec.).
In the case of `COc1cc(NCCN2C3C=C(c4ccc5ccccc5c4)CC2CC3)c2ncccc2c1` (stereo not drawn) (as salt: oxalate) [Example 5, 6-Methoxy-N-{2-[3-(2-naphthyl)-8-azabicyclo[3.2.1]oct-2-en-8-yl]ethyl}-8-quinolinamine], the melting point is reported as 179 to 182 °C.
In the case of `COc1ccc2cc(C3=CC4CCC(C3)N4CCOc3cccc4[nH]ccc34)ccc2c1` (stereo not drawn) (as salt: oxalate) [Example 10, 4-{2-[3-(6-Methoxy-naphthalen-2-yl)-8-aza-bicyclo[3.2.1]oct-2-en-8-yl]-ethoxy}-1H-indole], the melting point is reported as 130 to 132 °C (dec.).
With `FC(F)(F)c1cccc(OCCN2C3C=C(c4ccc5ccccc5c4)CC2CC3)c1` (stereo not drawn) (as salt: oxalate) [Example 11, 3-Naphthalen-2-yl-8-[2-(3-trifluoromethyl-phenoxy)-ethyl]-8-aza-bicyclo[3.2.1]oct-2-ene] the melting point was 128 to 130 °C (dec.).
In the case of `c1ccc2cc(C3CC4CCC(C3)N4CCOc3cccc4[nH]ccc34)ccc2c1` (stereo not drawn) (as salt: oxalate) [Example 12, 4-[2-(3-Naphthalen-2-yl-8-aza-bicyclo[3.2.1]oct-8-yl)-ethoxy]-1H-indole], the melting point is reported as 119 to 120 °C (dec.).
For `C1=C(c2c[nH]c3ccccc23)CC2CCC1N2CCOc1cccc2ncccc12` (stereo not drawn) [Example 3, 2-[3-(1H-Indol-3-yl)-8-azabicyclo[3.2.1]oct-2-en-8-yl]ethyl 5-quinolinyl Ether], the Ki [1] was 2.27 nM, the IC50 [2] was 86.5 nM and the Ki [3] was 173 nM. The IC50 [4] was 1170 nM and the Emax ([4]; excess 8-OH-DPAT defines maximum agonist response, read-out: [35S]GTPgS Emax) was 0%.
For `C1=C(c2ccc3ccccc3c2)CC2CCC1N2CCOc1cccc2c1OCCO2` (stereo not drawn) [Example 4, 8-[2-(2,3-Dihydro-benzo[1,4]dioxin-5-yloxy)-ethyl]-3-naphthalen-2-yl-8-aza-bicyclo[3.2.1]oct-2-ene], the Ki [1] was 0.17 nM, the IC50 [2] was 21.7 nM and the Ki [3] was 329 nM.
Work on `COc1cc(NCCN2C3C=C(c4ccc5ccccc5c4)CC2CC3)c2ncccc2c1` (stereo not drawn) [Example 5, 6-Methoxy-N-{2-[3-(2-naphthyl)-8-azabicyclo[3.2.1]oct-2-en-8-yl]ethyl}-8-quinolinamine] yielded a Ki [1] of 2.67 nM and an IC50 [2] of 42.8 nM.
`Clc1cc(NCCN2C3C=C(c4ccc5ccccc5c4)CC2CC3)c2ncccc2c1` (stereo not drawn) [Example 6, 6-Chloro-N-{2-[3-(2-naphthyl)-8-azabicyclo[3.2.1]oct-2-en-8-yl]ethyl}-8-quinolinamine] gave a Ki [1] of 7.5 nM and a melting point of 205 to 206 °C.
`C1=C(c2ccc3ccccc3c2)CC2CCC1N2CCNc1cccc2cccnc12` (stereo not drawn) [Example 7, N-{2-[3-(2-Naphthyl)-8-azabicyclo[3.2.1]oct-2-en-8-yl]ethyl}-8-quinolinamine] gave a Ki [1] of 1.61 nM and a melting point of 199 to 200 °C.
`COc1ccc2cc(C3=CC4CCC(C3)N4CCOc3cccc4[nH]ccc34)ccc2c1` (stereo not drawn) [Example 10, 4-{2-[3-(6-Methoxy-naphthalen-2-yl)-8-aza-bicyclo[3.2.1]oct-2-en-8-yl]-ethoxy}-1H-indole] gave a Ki [1] of 1.11 nM and an IC50 [2] of 58.6 nM.
With `FC(F)(F)c1cccc(OCCN2C3C=C(c4ccc5ccccc5c4)CC2CC3)c1` (stereo not drawn) [Example 11, 3-Naphthalen-2-yl-8-[2-(3-trifluoromethyl-phenoxy)-ethyl]-8-aza-bicyclo[3.2.1]oct-2-ene] the Ki [1] was 34 nM and the IC50 [2] was 191 nM.
`c1ccc2cc(C3CC4CCC(C3)N4CCOc3cccc4[nH]ccc34)ccc2c1` (stereo not drawn) [Example 12, 4-[2-(3-Naphthalen-2-yl-8-aza-bicyclo[3.2.1]oct-8-yl)-ethoxy]-1H-indole] gave a Ki [1] of 0.39 nM and an IC50 [2] of 35.7 nM.
`c1ccc2cc(C3CC4CCC(C3)N4CCOc3cccc4cccnc34)ccc2c1` (stereo not drawn) [Example 17, 8-{2-[3-(2-Naphthyl)-8-azabicyclo[3.2.1]oct-8-yl]ethoxy}quinoline] showed a Ki [1] of 0.13 nM and a melting point of 110 to 113 °C.
Work on `c1ccc2cc(C3CC4CCC(C3)N4CCSc3cccc4cccnc34)ccc2c1` (stereo not drawn) [Example 18, 8-({2-[3-(2-Naphthyl)-8-azabicyclo[3.2.1]oct-8-yl]ethyl}sulfanyl)quinoline] yielded a Ki [1] of 0.06 nM, an IC50 [2] of 3.5 nM and a Ki [3] of 256 nM. The melting point was 200 to 203 °C.
